Legend:
[1] = system: NK-92 (IL-2 2.5 ng/mL); assay: drug sensitivity score (DSS) (DSS units); higher = more sensitive; extreme values may be limits of the assay; conditions: 72 h
[2] = system: normal primary NK cells, pool 1 (3 donors), resting (IL-2 0 ng/mL); assay: as above; conditions: 72 h
[3] = system: IMC-1 (IL-2 20 ng/mL); assay: as above; conditions: 72 h
[4] = system: KHYG-1 (IL-2 2.5 ng/mL); assay: as above; conditions: 72 h
[5] = system: normal primary NK cells, pool 3 (3 donors) (IL-2 2.5 ng/mL); assay: as above; conditions: 72 h
[6] = system: DERL-7 (IL-2 2.5 ng/mL); assay: as above; conditions: 72 h
[7] = system: KAI3 (IL-2 2.5 ng/mL); assay: as above; conditions: 72 h
[8] = system: NK-YS (IL-2 2.5 ng/mL); assay: as above; conditions: 72 h
[9] = system: normal primary NK cells, pool 2 (3 donors) (IL-2 2.5 ng/mL); assay: as above; conditions: 72 h
[10] = system: NKL (IL-2 2.5 ng/mL); assay: as above; conditions: 72 h
[11] = system: YT (IL-2 2.5 ng/mL); assay: as above; conditions: 72 h
[12] = system: normal primary NK cells, pool 1 (3 donors) (IL-2 2.5 ng/mL); assay: as above; conditions: 72 h
[13] = system: SNK-6 (IL-2 2.5 ng/mL); assay: as above; conditions: 72 h
[14] = system: normal NK cells expanded with K562-aAPC; assay: as above; conditions: 72 h; IL-2 2.5 ng/mL
Experimental: (§1)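 Drug sensitivity and resistance testing on K562-aAPC-expanded normal NK cells: 5 concentrations (10-fold steps over a 10,000-fold range), 72 h at 37 °C, viability by CellTiter-Glo normalised to DMSO and benzethonium chloride controls; DSS from the fitted curve.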

[15] = system: NK-92 (IL-2 2.5 ng/mL); assay: percent inhibition of viability; higher = more inhibition; conditions: 72 h
[16] = system: normal primary NK cells, pool 1 (3 donors), resting (IL-2 0 ng/mL); assay: as above; conditions: 72 h
[17] = system: IMC-1 (IL-2 20 ng/mL); assay: as above; conditions: 72 h
[18] = system: KHYG-1 (IL-2 2.5 ng/mL); assay: as above; conditions: 72 h
[19] = system: normal primary NK cells, pool 3 (3 donors) (IL-2 2.5 ng/mL); assay: as above; conditions: 72 h
[20] = system: DERL-7 (IL-2 2.5 ng/mL); assay: as above; conditions: 72 h
[21] = system: KAI3 (IL-2 2.5 ng/mL); assay: as above; conditions: 72 h
[22] = system: NK-YS (IL-2 2.5 ng/mL); assay: as above; conditions: 72 h
[23] = system: normal primary NK cells, pool 2 (3 donors) (IL-2 2.5 ng/mL); assay: as above; conditions: 72 h
[24] = system: NKL (IL-2 2.5 ng/mL); assay: as above; conditions: 72 h
[25] = system: YT (IL-2 2.5 ng/mL); assay: as above; conditions: 72 h
[26] = system: normal primary NK cells, pool 1 (3 donors) (IL-2 2.5 ng/mL); assay: as above; conditions: 72 h
[27] = system: SNK-6 (IL-2 2.5 ng/mL); assay: as above; conditions: 72 h
[28] = system: normal NK cells expanded with K562-aAPC; assay: as above; conditions: 72 h, IL-2 2.5 ng/mL
Experimental: as §1

CN[C@@H](C)C(=O)N[C@H]1CN(C(=O)CC(C)C)CC[C@H]2CC[C@@H](C(=O)NC(c3ccccc3)c3ccccc3)N2C1=O [AT-406] (max concentration tested 10000 nM)
Conditions | drug sensitivity score
[1] | 4.65
[2] | 7.24
[3] | 2.57
[4] | 8.94
[5] | 5.48
[6] | 4.83
[7] | 5.12
[8] | 0
[9] | 6.28
[10] | 3.99
[11] | 3.66
[12] | 7.33
[13] | 0.19
[14] | 5.72

percent inhibition of viability [%]
Conditions | 1 nM | 10 nM | 100 nM | 1000 nM | 10000 nM
[15] | -23.7 | -16.2 | 3.03 | 13.5 | 49.2
[16] | -17.3 | -12.3 | 13.9 | 28.4 | 73.2
[17] | -6.88 | -6.17 | 4.87 | 17.4 | 12.2
[18] | -3.13 | -12.2 | -7.84 | 25.9 | 91.8
[19] | -11.2 | -10.2 | 2.26 | 13 | 61.8
[20] | -6.8 | 8.09 | 10.6 | 21.5 | 39.4
[21] | 0.46 | -9.34 | -3.88 | 10.2 | 62.7
[22] | -5.59 | -11.9 | -8.91 | -3.43 | 6.14
[23] | -16.6 | -8.69 | 4.59 | 20.9 | 64.6
[24] | 2.76 | 0.59 | 0.42 | 22.9 | 30.9
[25] | 0.43 | -2.82 | -3.18 | 14.6 | 35.9
[26] | -7.15 | 1.28 | 15.2 | 27.8 | 74
[27] | -9.2 | -11.9 | -1.09 | 4.11 | 11.8
[28] | -3.38 | -2.67 | 4.16 | 25.7 | 52.9

CC[C@H](CC#N)OC(=O)N[C@@H](C)c1cccc(NC(=O)Nc2ccc(-c3cnco3)c(OC)c2)c1 [AVN944] (max concentration tested 10000 nM)
Conditions | drug sensitivity score
[1] | 21.5
[2] | 4.7
[3] | 13.5
[4] | 23.1
[5] | 1.47
[6] | 22.3
[7] | 23.1
[8] | 22.9
[9] | 0.8
[10] | 19.2
[11] | 18.9
[12] | 2.1
[13] | 24.3
[14] | 9.68

percent inhibition of viability [%]
Conditions | 1 nM | 10 nM | 100 nM | 1000 nM | 10000 nM
[15] | -6.77 | -7.92 | 21.9 | 101 | 94.4
[16] | -10.3 | -2.43 | 27.4 | 7.53 | 62.7
[17] | -3.38 | 0.07 | -49.7 | 74.7 | 93.8
[18] | -0.31 | 1.95 | 46.9 | 96.4 | 96.2
[19] | -8.77 | -6.21 | 4.2 | 12.5 | 18.4
[20] | 1.82 | -0.51 | 46.2 | 89.3 | 94.2
[21] | 3.06 | 5.82 | 42.7 | 101 | 97.7
[22] | 1.24 | -1.29 | 45.5 | 94.6 | 94
[23] | -12.8 | -4.58 | 1.01 | 5.56 | 16.6
[24] | -10.6 | -12.7 | 32.8 | 81.2 | 72.3
[25] | 1.64 | 0.89 | 25.8 | 83.2 | 83.1
[26] | -6.01 | -11.6 | 1.98 | 6.68 | 27.3
[27] | 6.47 | 13.1 | 56.5 | 91 | 96.5
[28] | -4.47 | -3.33 | 15.6 | 41.6 | 39.1

CC(C)Oc1cc(Nc2nc(N[C@@H](C)c3ccc(F)cn3)ncc2Cl)n[nH]1 [AZ-23] (max concentration tested 1000 nM)
Conditions | drug sensitivity score
[1] | 0
[2] | 0
[3] | 0
[4] | 0.25
[5] | 0
[6] | 0.51
[7] | 2.21
[8] | 0.85
[9] | 7.86
[10] | 4.11
[11] | 0.01
[12] | 0
[13] | 3.55
[14] | 2.75

percent inhibition of viability [%]
Conditions | 0.1 nM | 1 nM | 10 nM | 100 nM | 1000 nM
[15] | -8.37 | -0.57 | 6.98 | -18.1 | -10.1
[16] | -13.2 | -3.44 | -0.59 | -21.9 | -26.6
[17] | 1.36 | 2.7 | 8 | 5.82 | 6.35
[18] | -3.32 | 3.62 | 8.53 | 3.55 | 16.2
[19] | -9.03 | -10.1 | -13.7 | 0.83 | 6.87
[20] | -2.19 | -3.08 | 4.42 | 0.42 | 18.3
[21] | 0.26 | -1.15 | 7.26 | 4.08 | 33.3
[22] | -4.76 | 0.81 | 3.08 | 0.21 | 23.1
[23] | -2.37 | -3.09 | -7.97 | 98.9 | 20
[24] | -5.13 | -8.13 | 11.5 | 13 | 49.2
[25] | -1.34 | 0.79 | 6.32 | -2.16 | 11.8
[26] | -2.92 | -1.19 | -3.79 | -5.46 | 7.88
[27] | -7.56 | 5.32 | 3.77 | 17.8 | 36.8
[28] | 2.78 | -2.04 | 0.04 | 9.24 | 31.4

From the supplement of paper PMC5908809
